Test results from ChEMBL document CHEMBL1201862, “PubChem BioAssay data set” (2004).
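Five concentrations, 48 hours, 96-well plates. The concentration for 50% growth inhibition is given as GI50.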 The source made the active and inactive calls. Rule as the data show it: active = GI50 up to about 1.1 µM and inactive = higher.

Columns and labels:
Assay in all cases: NCI anticancer screen, dose series, 48 h
[1] = system: HL-60
[2] = system: K562
[3] = system: CAKI-1
[4] = system: UO-31
[5] = system: SK-OV-3
[6] = system: CCRF-CEM
[7] = system: IGROV-1
[8] = system: NCI-H23
[9] = system: M14
[10] = system: HCC 2998
[11] = system: DLD-1
[12] = system: SF-268
[13] = system: SK-MEL-2
[14] = system: SF-539
[15] = system: EKVX
[16] = system: DU-145
[17] = system: NCI/ADR-RES
[18] = system: PC-3
[19] = system: MDA-N
[20] = system: BT-549

SMILES | GI50 [1] | GI50 [2] | GI50 [3] | GI50 [4] | GI50 [5] | GI50 [6] | GI50 [7] | GI50 [8] | GI50 [9] | GI50 [10] | GI50 [11] | GI50 [12] | GI50 [13] | GI50 [14] | GI50 [15] | GI50 [16] | GI50 [17] | GI50 [18] | GI50 [19] | GI50 [20]
COc1ccc2nc3ccccc3c(NCCN(CCCl)CCCl)c2c1 | 0.206 µM (active) | 0.407 µM (active) | 0.251 µM (active) | 1.57 µM (inactive) | 1.48 µM (inactive) | 0.144 µM (active) | 1.3 µM (inactive) | 0.156 µM (active) | 1.03 µM (active) | 1.28 µM (inactive) | 0.738 µM (active) | 0.783 µM (active) | 1.81 µM (inactive) | 0.608 µM (active) | 2.35 µM (inactive) | – | – | – | – | –
CCOc1ccc(/C=C\c2cc(OC)c(OC)c(OC)c2)cc1 | < 0.0001 µM (active) | < 0.0001 µM (active) | 0.01 µM (active) | 0.00041 µM (active) | – | 0.01 µM (active) | 0.2 µM (active) | 0.027 µM (active) | 0.01 µM (active) | 0.0685 µM (active) | 0.0194 µM (active) | 0.000625 µM (active) | 0.00378 µM (active) | 0.000102 µM (active) | 0.735 µM (active) | – | – | – | – | –
CCN(CC)c1ccc2c(c1)N=C1N=CC=CN1C2(c1ccc(N(C)C)cc1)c1ccc(N(C)C)cc1 | 1.43 µM (inactive) | 2.3 µM (inactive) | 11.1 µM (inactive) | 7.48 µM (inactive) | 2.61 µM (inactive) | 8.55 µM (inactive) | 10.4 µM (inactive) | 6.95 µM (inactive) | 3.32 µM (inactive) | 3.24 µM (inactive) | 4.53 µM (inactive) | 11 µM (inactive) | 12.6 µM (inactive) | 14.6 µM (inactive) | 9.73 µM (inactive) | – | – | – | – | –
CC(=O)OC1COC(n2c(=S)n(-c3ccccc3)c(=O)c3ccccc32)C(OC(C)=O)C1OC(C)=O (configuration not stated) | 20.4 µM (inactive) | 2.51 µM (inactive) | 2.94 µM (inactive) | 48.9 µM (inactive) | > 100 µM (inactive) | 32.7 µM (inactive) | 67.3 µM (inactive) | 70 µM (inactive) | 21.3 µM (inactive) | 58.2 µM (inactive) | 56.5 µM (inactive) | 89.9 µM (inactive) | 13.1 µM (inactive) | > 100 µM (inactive) | > 100 µM (inactive) | – | – | – | – | –
COc1ccc(OC)c(CCc2ccccc2CC(=O)O)c1 | > 100 µM (inactive) | > 100 µM (inactive) | > 100 µM (inactive) | > 100 µM (inactive) | > 100 µM (inactive) | > 100 µM (inactive) | > 100 µM (inactive) | > 100 µM (inactive) | > 100 µM (inactive) | > 100 µM (inactive) | > 100 µM (inactive) | > 100 µM (inactive) | > 100 µM (inactive) | > 100 µM (inactive) | > 100 µM (inactive) | – | – | – | – | –
C[C@H]1CC[C@H](NC(=O)N(CCCl)N=O)CC1 | 14.4 µM (inactive) | 34.3 µM (inactive) | 27.2 µM (inactive) | 49.9 µM (inactive) | 77.3 µM (inactive) | 13.2 µM (inactive) | 38.8 µM (inactive) | 54.5 µM (inactive) | 27.6 µM (inactive) | 44 µM (inactive) | 39.5 µM (inactive) | 22.1 µM (inactive) | 46.5 µM (inactive) | 27.1 µM (inactive) | 78.3 µM (inactive) | 82.4 µM (inactive) | 47.1 µM (inactive) | 47.9 µM (inactive) | 44.8 µM (inactive) | 24.7 µM (inactive)
CNS(=O)(=O)NNS(=O)(=O)c1ccc2ccccc2c1 | > 100 µM (inactive) | > 100 µM (inactive) | > 100 µM (inactive) | > 100 µM (inactive) | > 100 µM (inactive) | > 100 µM (inactive) | > 100 µM (inactive) | > 100 µM (inactive) | > 100 µM (inactive) | > 100 µM (inactive) | > 100 µM (inactive) | > 100 µM (inactive) | > 100 µM (inactive) | > 100 µM (inactive) | > 100 µM (inactive) | – | – | – | – | –
Cc1ccccc1C(C#N)/C(=N/NC(=O)C(=O)NN)C(=O)Nc1cccc(C(F)(F)F)c1 (configuration not stated) | > 100 µM (inactive) | > 100 µM (inactive) | > 100 µM (inactive) | > 100 µM (inactive) | – | > 100 µM (inactive) | > 100 µM (inactive) | > 100 µM (inactive) | > 100 µM (inactive) | > 100 µM (inactive) | > 100 µM (inactive) | > 100 µM (inactive) | > 100 µM (inactive) | > 100 µM (inactive) | > 100 µM (inactive) | – | – | – | – | –
c1ccc(-c2nnc3nn4c(-c5ccccc5)cnnc4c3c2-c2ccccc2)cc1 | 3.12 µM (inactive) | 75 µM (inactive) | 23.7 µM (inactive) | 23.2 µM (inactive) | – | > 100 µM (inactive) | – | > 100 µM (inactive) | > 100 µM (inactive) | 48.2 µM (inactive) | 95.1 µM (inactive) | – | > 100 µM (inactive) | 26.3 µM (inactive) | 19.7 µM (inactive) | – | – | – | – | –
COc1ccc(-c2cc(=O)c3c(O)cc(O)cc3o2)c(OC)c1OC | 10.1 µM (inactive) | 42.7 µM (inactive) | 60.8 µM (inactive) | – | > 100 µM (inactive) | 50 µM (inactive) | > 100 µM (inactive) | > 100 µM (inactive) | > 100 µM (inactive) | 92 µM (inactive) | 81.3 µM (inactive) | 85.3 µM (inactive) | > 100 µM (inactive) | > 100 µM (inactive) | > 100 µM (inactive) | – | – | – | – | –
O=C1[C@@H]2C3SC(c4ccccc43)[C@@H]2C(=O)N1c1ccccc1 | > 100 µM (inactive) | > 100 µM (inactive) | > 100 µM (inactive) | > 100 µM (inactive) | > 83.4 µM (inactive) | > 100 µM (inactive) | > 100 µM (inactive) | > 100 µM (inactive) | > 100 µM (inactive) | > 100 µM (inactive) | > 100 µM (inactive) | > 95.1 µM (inactive) | > 100 µM (inactive) | > 75 µM (inactive) | > 100 µM (inactive) | – | – | – | – | –
CCC12CCCN(Cc3ccccc3)C1c1c(n(C)c3ccccc13)C(C(=O)OC)C2 (configuration not stated) | 87.3 µM (inactive) | 93.5 µM (inactive) | 205 µM (inactive) | – | 236 µM (inactive) | 143 µM (inactive) | 146 µM (inactive) | 77.1 µM (inactive) | – | 164 µM (inactive) | 212 µM (inactive) | 175 µM (inactive) | > 239 µM (inactive) | 126 µM (inactive) | > 239 µM (inactive) | – | – | – | – | –
COc1ccc(/C=N/N=C(\N)NO)cc1OC | 63.1 µM (inactive) | 11.5 µM (inactive) | 29.5 µM (inactive) | 28.1 µM (inactive) | 45.1 µM (inactive) | 49.7 µM (inactive) | 33.9 µM (inactive) | > 100 µM (inactive) | 27.9 µM (inactive) | > 100 µM (inactive) | 60.1 µM (inactive) | 20.4 µM (inactive) | 58.5 µM (inactive) | 26.3 µM (inactive) | 26.2 µM (inactive) | – | – | – | – | –
COC(=O)/C=C1/CCC2[C@@H](C(=O)CC3[C@]2(C)CCC[C@@]3(C)C(=O)OC)C1C (some centres not stated) | 2.61 µM (inactive) | 3.18 µM (inactive) | 5.36 µM (inactive) | 15.1 µM (inactive) | 30.9 µM (inactive) | 3.56 µM (inactive) | 20.2 µM (inactive) | 11.2 µM (inactive) | 13.2 µM (inactive) | 20.1 µM (inactive) | 12.7 µM (inactive) | 15 µM (inactive) | 16 µM (inactive) | 14.9 µM (inactive) | 24 µM (inactive) | – | – | – | – | –
COc1cc2c(c(OC)c1OC)-c1ccc(SC)c(=O)cc1C(CC(=O)Oc1cccc(F)c1)C2 (configuration not stated) | 0.0906 µM (active) | 0.149 µM (active) | 1.35 µM (inactive) | 0.753 µM (active) | 0.0385 µM (active) | 0.228 µM (active) | 0.787 µM (active) | 0.259 µM (active) | 0.242 µM (active) | 0.111 µM (active) | 0.397 µM (active) | 0.653 µM (active) | 0.397 µM (active) | 0.111 µM (active) | 2.62 µM (inactive) | – | – | – | – | –
CC(C)C(Nc1c2ccccc2nc2ccccc12)C(=O)O (configuration not stated) | 52.6 µM (inactive) | > 100 µM (inactive) | > 100 µM (inactive) | 29.1 µM (inactive) | > 100 µM (inactive) | > 100 µM (inactive) | > 100 µM (inactive) | > 100 µM (inactive) | > 100 µM (inactive) | > 100 µM (inactive) | > 100 µM (inactive) | > 100 µM (inactive) | > 100 µM (inactive) | > 100 µM (inactive) | 67.8 µM (inactive) | – | – | – | – | –
CC[N+]1(C)CCC(O)(/C=C/c2ccccc2)C(C(=O)/C=C/c2ccccc2)C1 (configuration not stated) | 2.31 µM (inactive) | 2.7 µM (inactive) | 1.85 µM (inactive) | 15.6 µM (inactive) | 18.2 µM (inactive) | 1.94 µM (inactive) | 18.7 µM (inactive) | 15.2 µM (inactive) | 11.3 µM (inactive) | 16.7 µM (inactive) | 4.98 µM (inactive) | 15.6 µM (inactive) | 19.8 µM (inactive) | 7.43 µM (inactive) | 22.5 µM (inactive) | 19.1 µM (inactive) | 30.6 µM (inactive) | 14.6 µM (inactive) | 6.11 µM (inactive) | 15.7 µM (inactive)
S=P(N1CC1)(N1CC1)N1CC1 [THIOTEPA] | 7.45 µM (inactive) | 143 µM (inactive) | 30.3 µM (inactive) | 97.9 µM (inactive) | 101 µM (inactive) | 9.46 µM (inactive) | 158 µM (inactive) | 36.1 µM (inactive) | 72.1 µM (inactive) | 111 µM (inactive) | 195 µM (inactive) | 39.4 µM (inactive) | 220 µM (inactive) | 37.7 µM (inactive) | 234 µM (inactive) | 32.1 µM (inactive) | 79.1 µM (inactive) | 217 µM (inactive) | 161 µM (inactive) | 175 µM (inactive)
